# Where two headings read alike, the source gives them in different places.
# Key:
# [1] = test system: IL-6, IL-1β, and TNFα; assay type: cell-based
# [2] = test system: SARS CoV-2 infected Caco2 cells; assay type: cell-based
# [3] = test system: GFP-CoV-2 infected mature adipocytes; assay type: cell-based, SARS CoV-2; conditions: for reduction in infection by cytoimmunochemical staining (SARS CoV-2/ACE2): mature adipocytes, FIG. 3C
# [4] = test system: CoV-2 infection; assay type: in vivo, human; conditions: obese Type 2 diabetic patient, oral, retested twice over several weeks
# [5] = test system: serum inflammatory markers and anti-inflammatory cytokines; conditions: Type 2 diabetic patients; cited from earlier work
SMILES,expression of IL-1β (fold change) [1],expression of IL-6 (fold change) [1],expression of TNFα (fold change) [1],expression of SARS CoV-2 N protein (fold change) [2],expression of SARS CoV-2 S protein (fold change) [2],inhibition of viral infection (integrated density of GFP expression) [3],reduction in infection by cytoimmunochemical staining (SARS CoV-2/ACE2) [3],virus test after treatment [4],anti-inflammatory cytokines [5],serum levels of inflammatory markers [5],"inhibition of viral infection (integrated density of GFP expression) ([3]; […], metformin 10 mM, sitagliptin 20 uM)"
CN(C)C(=N)N=C(N)N [metformin],decreasing expression,decreasing expression,decreasing expression,decreasing expression,decreasing expression,inhibited viral infection,reduction in infection,–,–,–,–
N[C@@H](CC(=O)N1CCn2c(nnc2C(F)(F)F)C1)Cc1cc(F)c(F)cc1F [sitagliptin],decreasing expression,decreasing expression,decreasing expression,larger decrease than metformin,larger decrease than metformin,–,highest reduction,tests negative for the virus,increased,significantly decreased,highest reduction
